Experimental data taken from patent publication US20240207288A1, “METHODS OF TREATING ESOPHAGEAL STRICTURES” (Ellodi Pharmaceuticals, L.P., priority 2021, published 2024).
Read-outs that look alike come from different tables or passages of the source.

Legend:
[1] = test system: subjects with strictures and/or rings and EoE; assay: Clinical trial of FP ODT: histologic response (peak eosinophils/HPF in oesophageal biopsies); format: in vivo, human; conditions: subgroup with strictures and/or Grade 2 rings at baseline, Week 12
Experimental: A clinical trial was performed to evaluate the effect of an orally disintegrating tablet (“ODT”) comprising fluticasone propionate (FP). A randomised, double-blind, placebo-controlled, multicentre, dose-ranging, and maintenance study of FP in subjects (>18 and <75 years of age) with strictures and/or rings and EoE. The trial examined four doses of FP to define the exposure-response of FP and the minimum effective dose to minimize significant hypothalamic-pituitary-adrenal (HPA) axis effects. The study (as shown in FIG. 1) was designed as follows. • (a) Screening: Patients with a confirmed diagnosis or presumptive diagnosis of EoE (including identifying strictures and/or rings) were selected for the study. An EoE diagnosis was confirmed by symptoms, histology, and historical documentation of failed treatment on >8 weeks of high-dose proton pump inhibitor (PPI). A high-dose PPI was defined as administration of a total dose of 20 to 40 mg of a marketed PPI once or twice daily.
Subjects that participated in Part 1 studies were randomized and administered a treatment selected from: • (a) 1.5 mg HS: Placebo 30 minutes after breakfast and 1.5 mg HS (at bedtime); • (b) 1.5 mg BID: 1.5 mg 30 minutes after breakfast and at bedtime; total daily dose of 3 mg; • (c) 3 mg HS: Placebo 30 minutes after breakfast and 3 mg at bedtime; and • (d) 3 mg BID: 3.0 mg 30 minutes after breakfast and at bedtime; total daily dose of 6 mg.
During Part 1 (Induction, Day 1 to Week 14), subjects received their randomized treatment for 14 weeks. At Week 12, the subjects underwent a response assessment, including an oesophagogastroduodenoscopy (EGD) to assess endoscopic and histologic status. Histologic responders and non-responders (at Week 12) entered Part 2.
The primary endpoint was the histologic responder rate at Week 12 of Part 1, […] 5 to 6 biopsies from the proximal and distal oesophagus (approximately 3 each) where the HPF area was […] (40 magnification lens with a 22 mm ocular).

[2] = cited from earlier work

Substance: S-(fluoromethyl)-6α,9-difluoro-11β, 17-dihydroxy-16α-methyl-3-oxoandrosta-1, 4-diene-17β-carbothioate, 17-propanoate [FP]
- Histology Responder Rate, % ([1]; FP 1.5 mg BID (n = 12)): 100%
- Histology Responder Rate, % ([1]; FP 1.5 mg HS (n = 13)): 54%
- Histology Responder Rate, % ([1]; FP 3 mg BID (n = 7)): 86%
- Histology Responder Rate, % ([1]; FP 3 mg HS (n = 11)): 82%
- Histology Responder Rate, % ([1]; all FP dosing groups, TOTAL (n = 43)): 79%
- Solubility ([2]; acetone, dichloromethane, ethyl acetate and chloroform): sparingly soluble
- Solubility ([2]; dimethyl sulfoxide and dimethylformamide): freely soluble
- Solubility ([2]; methanol and 95% ethanol): slightly soluble
- Solubility ([2]; water): practically insoluble
